Earlier results, collected in patent US6653500B2, “Method for the manufacture of Anagrelide” (Shire US Inc., priority 2000, dated 2003).
Like-named read-outs stand apart in the source and are kept apart here.

Tests used:
[1] = solid
[2] = humans, radiolabeled base
[3] = monkeys, radiolabeled base

SMILES: O=C1CN2Cc3c(ccc(Cl)c3Cl)N=C2N1 [compound III, 6,7-dichloro-1,5-dihydroimidazo[2,1-b]quinazolin-2(3H)-one]
- aqueous solubility [1]: low
- absorption into blood plasma [2]: complete absorption
- absorption into blood plasma [3]: complete absorption
- solubility in most organic solvents: low
